Earlier results, collected in publication PMC4512239 (Clinical cancer research : an official journal of the …, 2015).

details: allosteric m-TOR inhibitors; cited from earlier work

half-life, ≥ 24 h:
CO[C@H]1C[C@@H]2CC[C@@H](C)[C@@](O)(O2)C(=O)C(=O)N2CCCC[C@H]2C(=O)O[C@H]([C@H](C)C[C@@H]2CC[C@@H](OC(=O)C(C)(CO)CO)[C@H](OC)C2)CC(=O)[C@H](C)/C=C(\C)[C@@H](O)[C@@H](OC)C(=O)[C@H](C)C[C@H](C)/C=C/C=C/C=C/1C [temsirolimus], CO[C@H]1C[C@@H]2CC[C@@H](C)[C@@](O)(O2)C(=O)C(=O)N2CCCC[C@H]2C(=O)O[C@H]([C@H](C)C[C@@H]2CC[C@@H](OCCO)[C@H](OC)C2)CC(=O)[C@H](C)/C=C(\C)[C@@H](O)[C@@H](OC)C(=O)[C@H](C)C[C@H](C)/C=C/C=C/C=C/1C [everolimus], CO[C@H]1C[C@@H]2CC[C@@H](C)[C@@](O)(O2)C(=O)C(=O)N2CCCC[C@H]2C(=O)O[C@H]([C@H](C)C[C@@H]2CC[C@@H](OP(C)(C)=O)[C@H](OC)C2)CC(=O)[C@H](C)/C=C(\C)[C@@H](O)[C@@H](OC)C(=O)[C@H](C)C[C@H](C)/C=C/C=C/C=C/1C [ridaforolimus]
